Measured values reported in patent US12018299B2, “Methods and kits for quantifying adenosine-containing molecules” (priority 2017, dated 2024).

Columns and labels:
MTAN-D198N = MTAN-D198N (Helicobacter pylori, UniProt Q9ZMY2, D198N); details: for affinity to MTAN-D198N / displacement of AdoHcy-TAMRA: displacement curves, FIG. 10B
[1] = target: T1, calf intestinal alkaline phosphatase (CIAP) (Bos taurus, UniProt P19111); details: read-out: Km of ATP for CIAP; competitive FP assay, 0.25 U/mL CIAP
T1 sequence (P19111 20-506): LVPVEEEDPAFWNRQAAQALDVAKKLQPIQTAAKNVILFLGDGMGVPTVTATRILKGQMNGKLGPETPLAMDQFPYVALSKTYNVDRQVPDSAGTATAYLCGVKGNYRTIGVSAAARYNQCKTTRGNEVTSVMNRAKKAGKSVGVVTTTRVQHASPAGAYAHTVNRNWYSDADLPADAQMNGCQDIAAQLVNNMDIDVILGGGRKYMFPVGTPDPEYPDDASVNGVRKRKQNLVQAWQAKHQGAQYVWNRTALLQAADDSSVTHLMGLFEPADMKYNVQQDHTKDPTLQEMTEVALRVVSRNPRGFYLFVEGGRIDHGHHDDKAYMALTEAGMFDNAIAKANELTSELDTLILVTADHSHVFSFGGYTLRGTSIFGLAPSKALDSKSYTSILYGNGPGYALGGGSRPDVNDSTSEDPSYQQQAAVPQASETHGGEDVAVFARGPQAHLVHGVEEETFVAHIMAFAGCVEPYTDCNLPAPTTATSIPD
Protocol: (§1) Calf Intestinal Alkaline Phosphatase (CIAP) was obtained from New England Biolabs. […] Reactions were initiated by adding ATP at varying concentrations ranging from 0.1 to 20 μM. Due to the ability of ATP to act as an inhibitor of CIAP at high concentrations, steady-state analysis of the resulting data was fitted to a substrate-inhibition equation in Equation 8, below, using Prism 7.

CIAP = CIAP (Bos taurus, UniProt P19111); details: molybdenum blue-based assay, previous work, cited from earlier work
Sequence of CIAP (P19111 20-506): as above

[2] = target: T1, calf intestinal alkaline phosphatase (CIAP); test: biochemical
Protocol: as §1

HpMTAN = HpMTAN (Helicobacter pylori, UniProt Q9ZMY2); details: previously characterized; cited from earlier work
Sequence of HpMTAN (Q9ZMY2 whole entry): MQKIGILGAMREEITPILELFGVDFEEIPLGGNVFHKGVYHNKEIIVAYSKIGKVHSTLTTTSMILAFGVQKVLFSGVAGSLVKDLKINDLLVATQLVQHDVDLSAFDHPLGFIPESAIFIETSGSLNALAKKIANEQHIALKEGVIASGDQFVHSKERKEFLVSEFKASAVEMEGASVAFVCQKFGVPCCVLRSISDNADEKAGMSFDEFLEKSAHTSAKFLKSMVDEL

[3] = target: Mycobacterium smegmatis EgtD (Mycolicibacterium smegmatis, UniProt A0R5M8); details: isothermal calorimetry, previously determined; cited from earlier work
Sequence of Mycobacterium smegmatis EgtD (A0R5M8 whole entry): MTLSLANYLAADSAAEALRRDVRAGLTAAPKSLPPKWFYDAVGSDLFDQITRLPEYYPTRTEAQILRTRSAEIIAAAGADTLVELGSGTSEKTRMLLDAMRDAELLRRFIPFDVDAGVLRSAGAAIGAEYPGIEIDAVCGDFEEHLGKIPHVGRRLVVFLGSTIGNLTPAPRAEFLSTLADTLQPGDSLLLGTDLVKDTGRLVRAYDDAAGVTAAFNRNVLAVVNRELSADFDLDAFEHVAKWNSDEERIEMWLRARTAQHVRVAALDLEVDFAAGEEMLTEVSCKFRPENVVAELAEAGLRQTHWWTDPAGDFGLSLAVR

[4] = tested on: N[C@@H](Cc1c[nH]cn1)C(=O)O; test: purified protein, by the assay type; details: pH 8.0; 25.0 °C

Sequence of MTAN-D198N (Q9ZMY2 whole entry D198N): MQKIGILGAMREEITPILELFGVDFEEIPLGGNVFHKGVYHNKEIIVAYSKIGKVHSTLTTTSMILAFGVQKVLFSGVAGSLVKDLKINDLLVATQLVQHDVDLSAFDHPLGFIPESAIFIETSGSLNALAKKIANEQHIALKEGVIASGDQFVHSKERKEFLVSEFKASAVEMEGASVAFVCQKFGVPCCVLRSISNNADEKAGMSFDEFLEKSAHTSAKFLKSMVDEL

Compound: Nc1ncnc2c1ncn2[C@@H]1O[C@H](COP(=O)(O)OP(=O)(O)O)[C@@H](O)[C@H]1O [ADP, adenosine diphosphate]
- affinity to MTAN-D198N / displacement of AdoHcy-TAMRA (MTAN-D198N): M affinity

Compound: Nc1ncnc2c1ncn2[C@@H]1O[C@H](COP(=O)(O)O)[C@@H](O)[C@H]1O [AMP, adenosine monophosphate]
- affinity to MTAN-D198N / displacement of AdoHcy-TAMRA (MTAN-D198N): M affinity

Compound: Nc1ncnc2c1ncn2[C@@H]1O[C@H](COP(=O)(O)OP(=O)(O)OP(=O)(O)O)[C@@H](O)[C@H]1O [ATP, adenosine triphosphate]
- affinity to MTAN-D198N / displacement of AdoHcy-TAMRA (MTAN-D198N): unable to displace AdoHcy-TAMRA
- Km [1]: 0.9 ± 0.2 µM
- Ki (CIAP; read-out: Ki for substrate inhibition of ATP (CIAP)): 19 µM
- Km (CIAP; read-out: Km of ATP for CIAP): 20.5 µM
- Ki [2]: 7.6 ± 1.8 µM

Compound: Nc1ncnc2c1ncn2[C@@H]1O[C@H](CSCC[C@H](N)C(=O)O)[C@@H](O)[C@H]1O [AdoHcy, S-adenosylhomocysteine]
- limit of detection, amount (MTAN-D198N; 50 μL reactions): about 0.3 pmol
- affinity with HpMTAN (HpMTAN): low p M affinity

Compound: C[S+](CC[C@H](N)C(=O)O)C[C@H]1O[C@@H](n2cnc3c(N)ncnc32)[C@H](O)[C@@H]1O (stereo partly drawn) [AdoMet, S-adenosyl methionine]
- Kd [3]: 270 ± 20 µM

Compound: N[C@@H](Cc1c[nH]cn1)C(=O)O [L-histidine]
- Kd [3]: 290 ± 14 µM

Compound: EgtD (Mycobacterium tuberculosis CDC1551)
- Km [4]: 330 ± 35 µM
